According to PMC10009787 (ACS Medicinal Chemistry Letters, 2023):
Read-outs that look alike come from different tables or passages of the source. Blank lines part the entries; values can stand above or below the molecule they belong to.

Experiments:
BLK = BLK (Homo sapiens, UniProt P51451); test: AssayQuant kinact/Ki profiling, PhosphoSens CSox-based kinetic assay; assay type: biochemical; set-up: purchased ThermoFisher / Life Technologies SelectScreen PV3683; details: for kinact/KI / BLK kinact/Ki: 2.5 nM enzyme, 1000 µM ATP, two step fit; for kinact: fitted value, two step
Sequence of BLK (P51451 whole entry): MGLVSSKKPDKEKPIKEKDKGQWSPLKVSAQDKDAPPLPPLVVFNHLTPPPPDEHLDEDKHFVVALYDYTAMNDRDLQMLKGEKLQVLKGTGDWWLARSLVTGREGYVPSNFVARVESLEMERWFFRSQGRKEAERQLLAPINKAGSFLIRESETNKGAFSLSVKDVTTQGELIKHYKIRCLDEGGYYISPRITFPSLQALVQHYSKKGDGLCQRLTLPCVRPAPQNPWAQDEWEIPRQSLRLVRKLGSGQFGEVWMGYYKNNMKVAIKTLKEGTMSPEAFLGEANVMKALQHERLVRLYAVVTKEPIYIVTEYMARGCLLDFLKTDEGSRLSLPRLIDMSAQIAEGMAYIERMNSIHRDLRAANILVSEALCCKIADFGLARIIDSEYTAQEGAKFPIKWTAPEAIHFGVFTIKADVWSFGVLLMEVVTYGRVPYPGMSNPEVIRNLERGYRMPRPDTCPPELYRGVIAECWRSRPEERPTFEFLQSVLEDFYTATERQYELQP

PDGFRB (PDGFR beta) = PDGFRB (PDGFR beta) (Homo sapiens, UniProt P09619); test: SelectScreen kinase profiling; assay type: biochemical; details: average of duplicate
Sequence of PDGFRB (PDGFR beta) (P09619 33-1106): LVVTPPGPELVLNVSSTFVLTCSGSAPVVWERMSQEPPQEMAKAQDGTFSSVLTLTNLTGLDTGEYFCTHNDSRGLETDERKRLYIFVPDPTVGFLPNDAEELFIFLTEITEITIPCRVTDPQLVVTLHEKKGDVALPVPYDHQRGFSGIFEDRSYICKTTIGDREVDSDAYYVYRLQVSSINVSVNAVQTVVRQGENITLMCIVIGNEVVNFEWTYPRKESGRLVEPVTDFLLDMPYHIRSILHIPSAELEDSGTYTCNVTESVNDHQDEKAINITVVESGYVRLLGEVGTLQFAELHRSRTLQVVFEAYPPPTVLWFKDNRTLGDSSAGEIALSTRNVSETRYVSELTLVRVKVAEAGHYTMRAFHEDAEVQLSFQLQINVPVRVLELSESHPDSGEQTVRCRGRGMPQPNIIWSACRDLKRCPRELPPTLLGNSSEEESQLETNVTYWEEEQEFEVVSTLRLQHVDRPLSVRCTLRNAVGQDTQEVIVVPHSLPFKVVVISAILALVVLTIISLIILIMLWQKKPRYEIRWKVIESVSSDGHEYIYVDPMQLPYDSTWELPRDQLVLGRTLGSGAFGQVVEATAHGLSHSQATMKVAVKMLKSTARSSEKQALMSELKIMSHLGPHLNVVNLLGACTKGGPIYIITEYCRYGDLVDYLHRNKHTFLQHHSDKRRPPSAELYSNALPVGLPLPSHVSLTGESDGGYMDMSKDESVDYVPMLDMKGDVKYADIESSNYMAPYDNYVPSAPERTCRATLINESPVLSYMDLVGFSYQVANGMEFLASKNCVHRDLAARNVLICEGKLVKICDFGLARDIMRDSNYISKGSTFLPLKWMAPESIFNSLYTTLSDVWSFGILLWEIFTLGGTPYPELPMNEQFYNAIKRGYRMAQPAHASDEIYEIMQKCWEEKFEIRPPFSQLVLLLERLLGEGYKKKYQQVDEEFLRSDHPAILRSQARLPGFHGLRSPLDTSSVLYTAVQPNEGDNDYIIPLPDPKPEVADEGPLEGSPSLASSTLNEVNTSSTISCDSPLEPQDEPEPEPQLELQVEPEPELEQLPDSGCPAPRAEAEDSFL

BTK = BTK (Homo sapiens, UniProt Q06187); test: Western blot, phosphorylation of BTK in Jeko-1 cells; assay type: cell-based; details: 2 h
Sequence of BTK (Q06187 whole entry): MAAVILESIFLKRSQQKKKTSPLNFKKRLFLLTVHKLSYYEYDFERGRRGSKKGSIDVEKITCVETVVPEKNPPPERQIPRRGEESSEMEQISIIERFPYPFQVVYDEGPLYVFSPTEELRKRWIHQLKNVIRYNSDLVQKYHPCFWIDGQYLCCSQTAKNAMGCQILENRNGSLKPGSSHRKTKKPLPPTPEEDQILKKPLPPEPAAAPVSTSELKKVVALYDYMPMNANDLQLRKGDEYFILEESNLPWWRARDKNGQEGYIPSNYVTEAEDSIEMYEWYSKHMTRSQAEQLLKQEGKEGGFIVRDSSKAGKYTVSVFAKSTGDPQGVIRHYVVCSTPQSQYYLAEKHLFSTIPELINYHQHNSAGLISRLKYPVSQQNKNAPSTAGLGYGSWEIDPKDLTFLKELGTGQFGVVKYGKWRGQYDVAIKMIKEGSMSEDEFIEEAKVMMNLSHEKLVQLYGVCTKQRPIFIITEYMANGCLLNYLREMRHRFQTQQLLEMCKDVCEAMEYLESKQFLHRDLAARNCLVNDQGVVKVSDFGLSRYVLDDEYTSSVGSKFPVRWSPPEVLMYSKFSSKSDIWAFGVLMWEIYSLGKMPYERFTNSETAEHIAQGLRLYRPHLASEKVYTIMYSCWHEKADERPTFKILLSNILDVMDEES

PTK6 (Brk) = PTK6 (Brk) (Homo sapiens, UniProt Q13882); test: SelectScreen kinase profiling; assay type: biochemical; details: average of duplicate
ERN1 = ERN1 (Homo sapiens, UniProt O75460); test: SelectScreen kinase profiling; assay type: biochemical; details: average of duplicate
Sequence of ERN1 (O75460 19-977): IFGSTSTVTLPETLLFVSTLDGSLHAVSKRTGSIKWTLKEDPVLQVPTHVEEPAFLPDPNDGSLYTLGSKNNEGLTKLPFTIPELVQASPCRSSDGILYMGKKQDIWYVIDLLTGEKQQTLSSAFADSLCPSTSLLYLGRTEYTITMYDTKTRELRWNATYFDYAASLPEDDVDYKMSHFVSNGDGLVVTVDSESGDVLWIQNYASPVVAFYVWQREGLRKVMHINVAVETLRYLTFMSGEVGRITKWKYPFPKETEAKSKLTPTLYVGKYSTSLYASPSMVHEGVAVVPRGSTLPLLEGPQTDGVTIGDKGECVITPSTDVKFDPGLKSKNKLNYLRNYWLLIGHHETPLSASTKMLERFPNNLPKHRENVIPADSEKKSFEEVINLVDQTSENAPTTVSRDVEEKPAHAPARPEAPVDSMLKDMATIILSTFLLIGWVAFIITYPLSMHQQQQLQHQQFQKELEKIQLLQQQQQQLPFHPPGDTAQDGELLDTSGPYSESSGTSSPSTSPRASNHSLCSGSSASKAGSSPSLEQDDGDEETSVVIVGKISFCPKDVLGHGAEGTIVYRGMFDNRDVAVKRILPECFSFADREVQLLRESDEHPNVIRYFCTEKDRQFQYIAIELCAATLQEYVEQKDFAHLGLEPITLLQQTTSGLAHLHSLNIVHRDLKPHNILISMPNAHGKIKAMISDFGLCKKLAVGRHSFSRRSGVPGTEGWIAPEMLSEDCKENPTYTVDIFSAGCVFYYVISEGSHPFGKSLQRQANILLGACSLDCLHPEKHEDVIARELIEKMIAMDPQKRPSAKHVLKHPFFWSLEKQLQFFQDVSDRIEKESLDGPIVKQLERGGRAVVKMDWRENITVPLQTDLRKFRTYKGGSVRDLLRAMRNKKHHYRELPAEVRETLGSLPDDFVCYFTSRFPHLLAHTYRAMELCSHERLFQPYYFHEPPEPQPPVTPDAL

KIT = KIT (Homo sapiens, UniProt P10721); test: SelectScreen kinase profiling; assay type: biochemical; details: average of duplicate
ERBB2 (HER2) = ERBB2 (HER2) (Homo sapiens, UniProt P04626); test: SelectScreen kinase profiling; assay type: biochemical; details: average of duplicate
BMX = molecular target: T1, BMX (Homo sapiens, UniProt P51813); test: AssayQuant kinact/Ki profiling, PhosphoSens CSox-based kinetic assay; assay type: biochemical; set-up: purchased ThermoFisher / Life Technologies SelectScreen PV3371; details: for kinact/KI / BMX kinact/Ki: 5.0 nM enzyme, 1000 µM ATP, two step fit; for kinact: fitted value, two step
T1 sequence (P51813 1-675): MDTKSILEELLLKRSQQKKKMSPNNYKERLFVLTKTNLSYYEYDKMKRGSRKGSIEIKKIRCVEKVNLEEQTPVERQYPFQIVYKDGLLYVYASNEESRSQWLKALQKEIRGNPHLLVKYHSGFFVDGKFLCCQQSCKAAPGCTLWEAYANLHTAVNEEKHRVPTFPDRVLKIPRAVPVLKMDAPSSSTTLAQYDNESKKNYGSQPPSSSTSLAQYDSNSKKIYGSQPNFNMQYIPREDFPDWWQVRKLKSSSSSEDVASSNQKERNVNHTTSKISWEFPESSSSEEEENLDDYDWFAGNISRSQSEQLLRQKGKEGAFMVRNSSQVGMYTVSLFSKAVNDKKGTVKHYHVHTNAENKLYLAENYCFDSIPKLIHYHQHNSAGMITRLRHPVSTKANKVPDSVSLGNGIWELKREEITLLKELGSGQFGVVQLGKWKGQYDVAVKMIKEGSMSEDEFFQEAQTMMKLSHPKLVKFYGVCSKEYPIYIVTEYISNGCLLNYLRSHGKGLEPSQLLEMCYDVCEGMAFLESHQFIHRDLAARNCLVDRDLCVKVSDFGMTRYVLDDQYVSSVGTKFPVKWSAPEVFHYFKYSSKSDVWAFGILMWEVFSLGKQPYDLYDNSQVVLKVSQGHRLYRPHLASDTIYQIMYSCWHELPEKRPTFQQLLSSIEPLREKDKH

TXK = TXK (Homo sapiens, UniProt P42681); test: SelectScreen kinase profiling; assay type: biochemical; details: average of duplicate
RIPK2 = RIPK2 (Homo sapiens, UniProt O43353); test: SelectScreen kinase profiling; assay type: biochemical; details: average of duplicate
[1] = molecular target: MAP2K1 (MEK1) S218D S222D (Homo sapiens, UniProt Q02750, S218D/S222D); test: SelectScreen kinase profiling; assay type: biochemical; details: average of duplicate
LYN A = LYN A (Homo sapiens, UniProt P07948); test: SelectScreen kinase profiling; assay type: biochemical; details: average of duplicate
Sequence of LYN A (P07948 whole entry): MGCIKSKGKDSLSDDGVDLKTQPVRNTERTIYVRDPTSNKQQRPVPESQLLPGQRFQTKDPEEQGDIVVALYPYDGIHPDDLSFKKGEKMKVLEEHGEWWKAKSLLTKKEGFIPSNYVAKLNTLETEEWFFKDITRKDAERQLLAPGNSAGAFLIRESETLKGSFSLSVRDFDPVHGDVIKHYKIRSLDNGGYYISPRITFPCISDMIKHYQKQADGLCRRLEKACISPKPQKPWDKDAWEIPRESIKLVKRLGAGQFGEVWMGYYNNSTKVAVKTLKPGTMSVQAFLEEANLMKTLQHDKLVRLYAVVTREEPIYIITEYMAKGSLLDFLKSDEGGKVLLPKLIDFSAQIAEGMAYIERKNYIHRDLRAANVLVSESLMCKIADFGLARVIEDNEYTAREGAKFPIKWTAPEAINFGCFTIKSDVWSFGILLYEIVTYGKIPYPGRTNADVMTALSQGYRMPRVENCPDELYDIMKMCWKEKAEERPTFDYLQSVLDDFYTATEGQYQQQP

TEC = TEC (Homo sapiens, UniProt P42680); test: SelectScreen kinase profiling; assay type: biochemical; details: average of duplicate
TTK = TTK (Homo sapiens, UniProt P33981); test: SelectScreen kinase profiling; assay type: biochemical; details: average of duplicate
Sequence of TTK (P33981 whole entry): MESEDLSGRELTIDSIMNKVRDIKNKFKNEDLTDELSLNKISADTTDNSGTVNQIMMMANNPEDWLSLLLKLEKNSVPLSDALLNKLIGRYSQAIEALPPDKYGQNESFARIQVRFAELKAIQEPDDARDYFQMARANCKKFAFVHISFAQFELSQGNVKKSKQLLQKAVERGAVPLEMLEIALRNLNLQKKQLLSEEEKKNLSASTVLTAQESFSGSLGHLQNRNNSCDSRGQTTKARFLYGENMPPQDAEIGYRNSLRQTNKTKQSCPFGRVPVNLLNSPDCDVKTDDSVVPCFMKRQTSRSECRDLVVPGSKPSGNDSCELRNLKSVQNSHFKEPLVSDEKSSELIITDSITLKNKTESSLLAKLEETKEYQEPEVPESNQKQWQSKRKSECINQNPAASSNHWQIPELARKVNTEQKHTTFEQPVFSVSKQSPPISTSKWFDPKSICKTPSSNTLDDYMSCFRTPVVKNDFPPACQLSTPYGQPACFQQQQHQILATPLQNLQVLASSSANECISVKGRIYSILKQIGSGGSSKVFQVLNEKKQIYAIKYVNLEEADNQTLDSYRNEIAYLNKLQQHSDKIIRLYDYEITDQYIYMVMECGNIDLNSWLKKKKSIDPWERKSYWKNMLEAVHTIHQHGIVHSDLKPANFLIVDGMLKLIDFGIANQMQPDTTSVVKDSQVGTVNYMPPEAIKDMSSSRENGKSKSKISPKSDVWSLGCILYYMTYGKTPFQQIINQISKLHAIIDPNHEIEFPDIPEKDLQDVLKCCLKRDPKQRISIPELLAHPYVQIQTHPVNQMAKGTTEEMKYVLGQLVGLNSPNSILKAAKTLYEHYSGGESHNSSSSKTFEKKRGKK

JAK3 = JAK3 (Homo sapiens, UniProt P52333); test: SelectScreen kinase profiling / Z′-Lyte kinase assay; details: for JAK3, BTK/Kinase: BTK selectivity from IC50 values; for Hillslope: JAK3 IC50 curve
Sequence of JAK3 (P52333 781-1124 limits assumed): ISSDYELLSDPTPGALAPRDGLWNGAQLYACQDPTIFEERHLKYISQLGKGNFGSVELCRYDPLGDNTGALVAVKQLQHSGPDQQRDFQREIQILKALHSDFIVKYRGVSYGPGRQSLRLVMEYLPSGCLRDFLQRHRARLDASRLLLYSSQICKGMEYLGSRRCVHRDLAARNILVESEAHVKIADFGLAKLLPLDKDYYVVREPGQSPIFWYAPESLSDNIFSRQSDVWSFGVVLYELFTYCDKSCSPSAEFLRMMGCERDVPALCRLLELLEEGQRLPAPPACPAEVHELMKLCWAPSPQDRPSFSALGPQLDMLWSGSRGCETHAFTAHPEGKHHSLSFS

PDGFRA (PDGFR alpha) = PDGFRA (PDGFR alpha) (Homo sapiens, UniProt P16234); test: SelectScreen kinase profiling; assay type: biochemical; details: average of duplicate

kinact/KI (BLK): 35000 M⁻¹ s⁻¹ | BLK kinact/Ki (BLK; listed as Dimethyl Analog): 35,500 M^-1S^-1 | kinact (BLK): 0.0021 s⁻¹ | inhibition at 1 µM (PDGFRB (PDGFR beta)): 0% | pBTK/BTK ratio normalized to the DMSO control (BTK; 1 uM): 0.37 | pBTK/BTK ratio normalized to the DMSO control (BTK; 10 uM): 0.31 | pBTK/BTK ratio normalized to the DMSO control (BTK; .01 uM): 0.47 | pBTK/BTK ratio normalized to the DMSO control (BTK; .1 uM): 0.36 | inhibition at 1 µM (PTK6 (Brk)): 69% | inhibition at 1 µM (ERN1): 2% | inhibition at 1 µM (KIT): 1% | inhibition at 1 µM (ERBB2 (HER2)): 2% | kinact/KI (BMX): 65000 M⁻¹ s⁻¹ | BMX kinact/Ki (BMX; listed as Dimethyl Analog): 64,800 M^-1S^-1 | kinact (BMX): 0.0053 s⁻¹ | inhibition at 1 µM (TXK): 94% | inhibition at 1 µM (RIPK2): 29% | inhibition at 1 µM [1]: 4% | inhibition at 1 µM (LYN A): 13% | inhibition at 1 µM (TEC): 91% | inhibition at 1 µM (TTK): -7% | IC50 (JAK3): > 10 µM | inhibition at 1 µM (JAK3): -7% | JAK3, BTK/Kinase (JAK3): > 781 x | Hillslope (JAK3): 0.86 | JAK3 IC50 (JAK3; Z′-Lyte, [ATP] Km app, 1 h incubation, duplicate): no observable activities | inhibition at 0.000495 µM (JAK3; read-out: % Inhibition Point 1): 4% | inhibition at 0.00152 µM (JAK3; read-out: % Inhibition Point 1): -1% | inhibition at 0.00457 µM (JAK3; read-out: % Inhibition Point 1): 2% | inhibition at 0.0137 µM (JAK3; read-out: % Inhibition Point 1): 1% | inhibition at 0.0412 µM (JAK3; read-out: % Inhibition Point 1): 1% | inhibition at 0.123 µM (JAK3; read-out: % Inhibition Point 1): 2% | inhibition at 0.37 µM (JAK3; read-out: % Inhibition Point 1): 3% | inhibition at 1.11 µM (JAK3; read-out: % Inhibition Point 1): 6% | inhibition at 3.33 µM (JAK3; read-out: % Inhibition Point 1): 17% | inhibition at 10 µM (JAK3; read-out: % Inhibition Point 1): 32% | inhibition at 0.000495 µM (JAK3; read-out: % Inhibition Point 2): 1% | inhibition at 0.00152 µM (JAK3; read-out: % Inhibition Point 2): -1% | inhibition at 0.00457 µM (JAK3; read-out: % Inhibition Point 2): -1% | inhibition at 0.0137 µM (JAK3; read-out: % Inhibition Point 2): 1% | inhibition at 0.0412 µM (JAK3; read-out: % Inhibition Point 2): 3% | inhibition at 0.123 µM (JAK3; read-out: % Inhibition Point 2): 4% | inhibition at 0.37 µM (JAK3; read-out: % Inhibition Point 2): 0% | inhibition at 1.11 µM (JAK3; read-out: % Inhibition Point 2): 11% | inhibition at 3.33 µM (JAK3; read-out: % Inhibition Point 2): 14% | inhibition at 10 µM (JAK3; read-out: % Inhibition Point 2): 32% | inhibition at 1 µM (PDGFRA (PDGFR alpha)): 3%
Compound: C=CC(=O)N1CCCC(n2nc(-c3c(C)cc(Oc4ccccc4)cc3C)c3c(N)ncnc32)C1 (stereo in doubt) [Compound 3]

kinact/KI (BLK): 320000 M⁻¹ s⁻¹ | BLK kinact/Ki (BLK; listed as Monomethyl Analog): 316,000 M^-1S^-1 | kinact (BLK): 0.0034 s⁻¹ | inhibition at 1 µM (PDGFRB (PDGFR beta)): 6% | pBTK/BTK ratio normalized to the DMSO control (BTK; 1 uM): 0.54 | pBTK/BTK ratio normalized to the DMSO control (BTK; 10 uM): 0.21 | pBTK/BTK ratio normalized to the DMSO control (BTK; .01 uM): 0.26 | pBTK/BTK ratio normalized to the DMSO control (BTK; .1 uM): 0.39 | inhibition at 1 µM (PTK6 (Brk)): 97% | inhibition at 1 µM (ERN1): 2% | inhibition at 1 µM (KIT): 15% | inhibition at 1 µM (ERBB2 (HER2)): 71% | kinact/KI (BMX): 81000 M⁻¹ s⁻¹ | BMX kinact/Ki (BMX; listed as Monomethyl Analog): 80,800 M^-1S^-1 | kinact (BMX): 0.0065 s⁻¹ | inhibition at 1 µM (TXK): 99% | inhibition at 1 µM (RIPK2): 95% | inhibition at 1 µM [1]: 12% | inhibition at 1 µM (LYN A): 85% | inhibition at 1 µM (TEC): 100% | inhibition at 1 µM (TTK): 2% | IC50 (JAK3): 0.874 µM | inhibition at 1 µM (JAK3): 65% | JAK3, BTK/Kinase (JAK3): 934 x | Hillslope (JAK3): 1.09 | inhibition at 0.000495 µM (JAK3; read-out: % Inhibition Point 1): -1% | inhibition at 0.00152 µM (JAK3; read-out: % Inhibition Point 1): -7% | inhibition at 0.00457 µM (JAK3; read-out: % Inhibition Point 1): 2% | inhibition at 0.0137 µM (JAK3; read-out: % Inhibition Point 1): -5% | inhibition at 0.0412 µM (JAK3; read-out: % Inhibition Point 1): 6% | inhibition at 0.123 µM (JAK3; read-out: % Inhibition Point 1): 9% | inhibition at 0.37 µM (JAK3; read-out: % Inhibition Point 1): 28% | inhibition at 1.11 µM (JAK3; read-out: % Inhibition Point 1): 55% | inhibition at 3.33 µM (JAK3; read-out: % Inhibition Point 1): 89% | inhibition at 10 µM (JAK3; read-out: % Inhibition Point 1): 98% | inhibition at 0.000495 µM (JAK3; read-out: % Inhibition Point 2): -4% | inhibition at 0.00152 µM (JAK3; read-out: % Inhibition Point 2): -5% | inhibition at 0.00457 µM (JAK3; read-out: % Inhibition Point 2): 0% | inhibition at 0.0137 µM (JAK3; read-out: % Inhibition Point 2): -3% | inhibition at 0.0412 µM (JAK3; read-out: % Inhibition Point 2): -2% | inhibition at 0.123 µM (JAK3; read-out: % Inhibition Point 2): 10% | inhibition at 0.37 µM (JAK3; read-out: % Inhibition Point 2): 27% | inhibition at 1.11 µM (JAK3; read-out: % Inhibition Point 2): 56% | inhibition at 3.33 µM (JAK3; read-out: % Inhibition Point 2): 85% | inhibition at 10 µM (JAK3; read-out: % Inhibition Point 2): 93% | inhibition at 1 µM (PDGFRA (PDGFR alpha)): 16%
Compound: C=CC(=O)N1CCC[C@@H](n2nc(-c3ccc(Oc4ccccc4)cc3C)c3c(N)ncnc32)C1 [Compound 2, (R)-1-(3-(4-amino-3-(2-methyl-4-phenoxyphenyl)-1H-pyrazolo[3,4-d]pyrimidin-1-yl)piperidin-1-yl)prop-2-en-1-one]
